Legend:
human A1AR = target: T1, human A1AR (Homo sapiens, UniProt P30542); test: Radioligand binding, human A1AR ([3H]DPCPX, transfected CHO cells); settings: displacement of [3H]DPCPX, n=3, racemic mixtures
T1 construct: expressed in transfected cells; host or cells: CHO
T1 sequence (P30542 1-326): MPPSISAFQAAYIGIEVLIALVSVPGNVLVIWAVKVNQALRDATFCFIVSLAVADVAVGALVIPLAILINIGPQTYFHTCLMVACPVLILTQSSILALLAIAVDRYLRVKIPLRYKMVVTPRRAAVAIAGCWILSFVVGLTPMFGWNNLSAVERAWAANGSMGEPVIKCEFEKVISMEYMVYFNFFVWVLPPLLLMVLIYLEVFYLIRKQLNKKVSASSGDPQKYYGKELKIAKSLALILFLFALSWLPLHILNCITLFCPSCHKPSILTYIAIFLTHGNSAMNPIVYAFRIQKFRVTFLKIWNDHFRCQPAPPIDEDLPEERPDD
Description: (§1) The affinity and selectivity profiles of the ligands obtained was studied in vitro, radioligand binding assays, at the four human specific ARs subtypes, using experimental protocols previously described.[28–30] All ligands were prepared and tested as racemic mixtures. […] Non-specific binding was determined in the presence of R-PIA 10 µM for A1AR, NECA 50 µM for A2AAR, NECA 400 μΜ for A2BAR and R-PIA 100 μΜ for A3AR.

human A3AR = target: T2, human A3AR (Homo sapiens, UniProt P0DMS8); test: Radioligand binding, human A3AR ([3H]NECA, transfected HeLa cells); settings: displacement of [3H]NECA, n=3, racemic mixtures
T2 construct: expressed in transfected cells; host or cells: HeLa
T2 sequence (P0DMS8 1-318): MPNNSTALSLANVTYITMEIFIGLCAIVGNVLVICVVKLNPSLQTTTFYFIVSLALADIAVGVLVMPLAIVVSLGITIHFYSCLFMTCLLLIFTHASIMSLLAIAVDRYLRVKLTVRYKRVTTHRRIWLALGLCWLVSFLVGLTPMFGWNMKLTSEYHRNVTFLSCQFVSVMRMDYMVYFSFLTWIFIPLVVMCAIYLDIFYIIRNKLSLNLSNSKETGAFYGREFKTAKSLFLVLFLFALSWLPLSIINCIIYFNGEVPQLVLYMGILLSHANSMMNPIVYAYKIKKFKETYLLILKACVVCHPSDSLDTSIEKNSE
Description: as §1

hA2B (A2BAR) = target: T3, hA2B (A2BAR) (Homo sapiens, UniProt P29275); test: cAMP assay, NECA-stimulated, HEK-293 cells with transfected A2BAR; assay type: cell-based; settings: n=3, read-out: Kb hA2B (cAMP production)
T3 construct: expressed in transfected cells; host or cells: HEK-293
T3 sequence (P29275 1-332): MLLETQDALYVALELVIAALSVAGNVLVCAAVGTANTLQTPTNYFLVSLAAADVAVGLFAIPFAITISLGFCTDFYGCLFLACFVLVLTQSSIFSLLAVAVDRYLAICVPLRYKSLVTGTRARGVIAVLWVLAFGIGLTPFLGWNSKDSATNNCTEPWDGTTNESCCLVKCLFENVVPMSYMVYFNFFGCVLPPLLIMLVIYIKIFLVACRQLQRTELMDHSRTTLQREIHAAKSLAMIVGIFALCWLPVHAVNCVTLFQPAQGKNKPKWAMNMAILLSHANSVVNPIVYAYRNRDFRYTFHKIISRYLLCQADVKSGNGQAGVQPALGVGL
Description: Assays were performed in transfected A2BAR using a cyclic AMP (cAMP) enzyme immunoassay kit (Amersham Biosciences) following previously described protocols.[28 30] HEK-293 cells were seeded (10,000 cells/well) in 96-well culture plates and incubated at 37°C in an atmosphere with 5% CO2 in Eagle’s Medium Nutrient Mixture F-12 (EMEM F-12), containing 10% fetal calf serum (FCS) and 1% L-Glutamine. Cells were washed three times with 200 µL assay medium (EMEM-F12 and 25 mM HEPES pH=7.4) and pre-incubated with assay medium containing 30 µM rolipram and test compounds at 37°C for 15 min. Ten µM NECA was incubated for 15 min at 37°C (total incubation time 30 min). Reaction was stopped with lysis buffer supplied in the kit and the enzyme immunoassay was carried out for detection of intracellular cAMP at 450 nm in an Ultra Evolution detector (Tecan). The dose-response curve of NECA-elicited cAMP formation was used to determine the initial choice of A2BAR antagonist concentration (online supplemental figure 2).

human A2BAR = target: T4, human A2BAR (Homo sapiens, UniProt P29275); test: Radioligand binding, human A2BAR ([3H]DPCPX, transfected HEK-293 cells); settings: displacement of [3H]DPCPX, human HEK-293 cells, n=3, racemic mixtures; read-out: Ki hA2B
T4 construct: expressed in transfected cells; host or cells: HEK-293
T4 sequence (P29275 1-332): T3 sequence (P29275 1-332)
Description: as §1

Row | Ki hA1 (human A1AR; human CHO cells) | Ki hA3 (human A3AR) | Kb (hA2B (A2BAR)) | Ki (human A1AR; transfected CHO cells, read-out: Ki hA1) | Ki (human A3AR; read-out: Ki hA3) | Ki (human A2BAR) | Structure (SMILES)
1 | devoid of affinity | devoid of affinity |  |  |  |  | CC1=C(C(=O)OC(C)C)C(c2ccoc2)n2c(nc3cc(Cl)ccc32)N1 (stereo not shown) [ISAM-M89A]
2 |  |  | 27 nM |  |  |  | CC1=C(C(=O)OC(C)C)C(c2ccco2)n2c(nc3ccccc32)N1 (stereo not shown) [ISAM-140, isopropyl 4-(furan-2-yl)−2-methyl-1,4-dihydrobenzo[4 5] imidazo[1,2 a]pyrimidine-3-carboxylate]
3 |  |  | 6.15 nM | > 1000 nM | > 1000 nM | 1.5 nM | CC1=C(C(=O)OC(C)C)C(c2ccco2)n2c(nc3ccccc32)N1Cc1ccccc1F (stereo not shown) [ISAM-R56A]
